Measurements reported in PubChem BioAssay AID1919015 (Molecular Pharmacology Branch, DTP, NCI, 2023).

System: OVCAR-5 complex spheroids with HUVEC/MSC, viability, % test/control
Assay: Anticancer human tumor OVCAR-5 cell line growth inhibition [AhR];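 further: spheroids exposed to compounds for 7 days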;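 on viability, T/C: 100% = DMSO vehicle control wells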
Conditions: for IC50: curve of first compound; for viability, T/C: stronger effect = lower value
In short: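 Complex tumor spheroids co-cultured with HUVEC and human MSC stroma; AhR antagonists tested in combination with standard-of-care and investigational agents. Top concentration at or near clinical Cmax (else 10 microM), half-log dilutions; growth expressed as percent test/control.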

[1] = second compound 0.1 µM, first compound 0.0316 µM
[2] = second compound 0.1 µM, first compound 0.1 µM
[3] = second compound 0.1 µM, first compound 0.316 µM
[4] = second compound 0.1 µM, first compound 1 µM
[5] = second compound 0.1 µM, first compound 3.16 µM
[6] = second compound 0.1 µM, first compound 10 µM
[7] = second compound 0.316 µM, first compound 0.0316 µM
[8] = second compound 0.316 µM, first compound 0.1 µM
[9] = second compound 0.316 µM, first compound 0.316 µM
[10] = second compound 0.316 µM, first compound 1 µM
[11] = second compound 0.316 µM, first compound 3.16 µM
[12] = second compound 0.316 µM, first compound 10 µM
[13] = second compound 1 µM, first compound 0.0316 µM
[14] = second compound 1 µM, first compound 0.1 µM
[15] = second compound 1 µM, first compound 0.316 µM
[16] = second compound 1 µM, first compound 1 µM
[17] = second compound 1 µM, first compound 3.16 µM
[18] = second compound 1 µM, first compound 10 µM
[19] = second compound 3.16 µM, first compound 0.0316 µM
[20] = second compound 3.16 µM, first compound 0.1 µM
[21] = second compound 3.16 µM, first compound 0.316 µM
[22] = second compound 3.16 µM, first compound 1 µM
[23] = second compound 3.16 µM, first compound 3.16 µM
[24] = second compound 3.16 µM, first compound 10 µM
[25] = second compound 10 µM, first compound 0.0316 µM
[26] = second compound 10 µM, first compound 0.1 µM
[27] = second compound 10 µM, first compound 0.316 µM
[28] = second compound 10 µM, first compound 1 µM
[29] = second compound 10 µM, first compound 3.16 µM
[30] = second compound 10 µM, first compound 10 µM

Row | Compound | IC50 (second compound 0.1 µM) [nM] | IC50 (second compound 0.316 µM) [nM] | IC50 (second compound 1 µM) [nM] | IC50 (second compound 3.16 µM) [nM] | IC50 (second compound 10 µM) [nM] | viability, T/C [1] [%] | viability, T/C [2] [%] | viability, T/C [3] [%] | viability, T/C [4] [%] | viability, T/C [5] [%] | viability, T/C [6] [%] | viability, T/C [7] [%] | viability, T/C [8] [%] | viability, T/C [9] [%] | viability, T/C [13] [%] | viability, T/C [14] [%] | viability, T/C [19] [%] | viability, T/C [20] [%] | viability, T/C [25] [%] | viability, T/C [26] [%] | further results
1 | CC1(C)CCC(CN2CCN(c3ccc(C(=O)NS(=O)(=O)c4ccc(NCC5CCOCC5)c([N+](=O)[O-])c4)c(Oc4cnc5[nH]ccc5c4)c3)CC2)=C(c2ccc(Cl)cc2)C1 + CC(CO)NC(=O)c1cc(-c2ccc(Cl)cc2)nn(-c2cnn(C)c2)c1=O | > 10000 | > 10000 | > 10000 | > 10000 | > 10000 | 107 | 107 | 109 | 113 | 118 | 51.4 | 111 | 107 | 113 | 115 | 116 | 102 | 106 | 100 | 102 | viability, T/C [10]: 114%; viability, T/C [11]: 118%; viability, T/C [12]: 50.6%; viability, T/C [15]: 122%; viability, T/C [16]: 120%; viability, T/C [17]: 122%; viability, T/C [18]: 53.8%; viability, T/C [21]: 104%; viability, T/C [22]: 111%; viability, T/C [23]: 114%; viability, T/C [24]: 53.8%; viability, T/C [27]: 104%; viability, T/C [28]: 104%; viability, T/C [29]: 106%; viability, T/C [30]: 57.6%
2 | COc1cc(Nc2ncc3c(n2)-c2ccc(Cl)cc2C(c2c(F)cccc2OC)=NC3)ccc1C(=O)O + CC(CO)NC(=O)c1cc(-c2ccc(Cl)cc2)nn(-c2cnn(C)c2)c1=O | 1820 | 2430 | 3710 | 1760 | 8330 | 88.6 | 84.8 | 62.4 | 55.9 | 48.1 | 43.3 | 87.3 | 84.4 | 65.7 | 92.1 | 87 | 79.4 | 81.8 | 75.5 | 72.8 | viability, T/C [10]: 60%; viability, T/C [11]: 47.9%; viability, T/C [12]: 38.7%; viability, T/C [15]: 69.5%; viability, T/C [16]: 60.1%; viability, T/C [17]: 54%; viability, T/C [18]: 41.8%; viability, T/C [21]: 65.4%; viability, T/C [22]: 55%; viability, T/C [23]: 46.7%; viability, T/C [24]: 42.4%; viability, T/C [27]: 62.9%; viability, T/C [28]: 59%; viability, T/C [29]: 51.8%; viability, T/C [30]: 50.4%
3 | Cn1ncnc1C1c2n[nH]c(=O)c3cc(F)cc(c23)NC1c1ccc(F)cc1 (stereo not given) + CC(CO)NC(=O)c1cc(-c2ccc(Cl)cc2)nn(-c2cnn(C)c2)c1=O | > 100 | > 100 | > 100 | > 100 | > 100 | 104 | 101 |  |  |  |  | 105 | 99.7 |  | 112 | 108 | 101 | 100 | 93.5 | 94.6 | viability, T/C (second compound 0.1 µM, first compound 0.000316 µM): 104%; viability, T/C (second compound 0.1 µM, first compound 0.001 µM): 105%; viability, T/C (second compound 0.1 µM, first compound 0.00316 µM): 105%; viability, T/C (second compound 0.1 µM, first compound 0.01 µM): 105%; viability, T/C (second compound 0.316 µM, first compound 0.000316 µM): 104%; viability, T/C (second compound 0.316 µM, first compound 0.001 µM): 110%; viability, T/C (second compound 0.316 µM, first compound 0.00316 µM): 106%; viability, T/C (second compound 0.316 µM, first compound 0.01 µM): 107%; viability, T/C (second compound 1 µM, first compound 0.000316 µM): 112%; viability, T/C (second compound 1 µM, first compound 0.001 µM): 114%; viability, T/C (second compound 1 µM, first compound 0.00316 µM): 112%; viability, T/C (second compound 1 µM, first compound 0.01 µM): 108%; viability, T/C (second compound 3.16 µM, first compound 0.000316 µM): 106%; viability, T/C (second compound 3.16 µM, first compound 0.001 µM): 103%; viability, T/C (second compound 3.16 µM, first compound 0.00316 µM): 103%; viability, T/C (second compound 3.16 µM, first compound 0.01 µM): 96.2%; viability, T/C (second compound 10 µM, first compound 0.000316 µM): 97.6%; viability, T/C (second compound 10 µM, first compound 0.001 µM): 97.8%; viability, T/C (second compound 10 µM, first compound 0.00316 µM): 99.5%; viability, T/C (second compound 10 µM, first compound 0.01 µM): 95.5%
4 | NS(=O)(=O)OCC1CC(n2ccc3c(NC4CCc5ccccc54)ncnc32)CC1O (stereo not given) + CC(CO)NC(=O)c1cc(-c2ccc(Cl)cc2)nn(-c2cnn(C)c2)c1=O | 196 | 159 | 169 | 174 | 204 | 92.9 | 66.1 | 40.3 | 16.1 | 13 | 11.3 | 79.5 | 58.9 | 37.1 | 85.1 | 61 | 72.1 | 65.3 | 75.7 | 65.7 | viability, T/C [10]: 14.8%; viability, T/C [11]: 11.2%; viability, T/C [12]: 11.5%; viability, T/C [15]: 37.6%; viability, T/C [16]: 14.9%; viability, T/C [17]: 11.5%; viability, T/C [18]: 11.6%; viability, T/C [21]: 33.5%; viability, T/C [22]: 13.7%; viability, T/C [23]: 11.3%; viability, T/C [24]: 11.2%; viability, T/C [27]: 40.7%; viability, T/C [28]: 15.7%; viability, T/C [29]: 12.6%; viability, T/C [30]: 12.6%
5 | O=C(C=Cc1cccc(S(=O)(=O)Nc2ccccc2)c1)NO + CC(CO)NC(=O)c1cc(-c2ccc(Cl)cc2)nn(-c2cnn(C)c2)c1=O | 1050 | 875 | 995 | 819 | 928 | 99.8 | 95.7 | 76 | 52.2 | 23.3 | 6.15 | 101 | 95 | 76.4 | 108 | 101 | 103 | 91.9 | 89.4 | 84.2 | viability, T/C [10]: 45.9%; viability, T/C [11]: 21%; viability, T/C [12]: 6.73%; viability, T/C [15]: 79.1%; viability, T/C [16]: 50%; viability, T/C [17]: 22.3%; viability, T/C [18]: 5.69%; viability, T/C [21]: 72.4%; viability, T/C [22]: 45.7%; viability, T/C [23]: 19.9%; viability, T/C [24]: 5.14%; viability, T/C [27]: 72.4%; viability, T/C [28]: 49.3%; viability, T/C [29]: 19.8%; viability, T/C [30]: 4.82%
